molecular target: AGEs (bovine serum albumin (BSA) incubated with a reducing sugar) (Bos taurus, UniProt P02769); assay: Reversion of the Maillard reaction: deglycation of AGEs prepared from bovine serum albumin and glucose, fluorescence read-out; type: biochemical; conditions: characterized molecules, in particular at 1×10^−1% in water or DMSO; about 50° C., 3 weeks; fluorescence with active principle versus positive control (15 mM aminoguanidine)
Protocol: The preparation of a solution containing a protein and a reducing sugar was carried out extemporaneously as follows: a solution of bovine serum albumin (BSA) at a concentration between 1.5 μM and 1.5M, preferably between 15 μM and 500 μM was incubated with a solution of a reducing sugar such as glucose, fructose, etc., preferably with glucose at a concentration between 0.1M and 10M and preferably between 0.5M and 5M.
The incubation was maintained between 1 and 5 weeks, and preferably for 3 weeks.
The measure of inhibition of the AGEs was carried out by measuring the fluorescence (excitation wavelength between 350 and 375 nm, preferably at 355 nm; emission wavelength between 420 and 450 nm, preferably at 430 nm). The reversion of the Maillard reaction was calculated by comparing the fluorescence of AGEs set at 100% (maximum fluorescence) with the fluorescence of AGEs+active agent tested.
The preparation of a protein/reducing sugar solution was carried out according to the method described in Example 1 (paragraph 1).
The preparation of a solution of protein/reducing sugar was carried out according to the method described in Example 1 (paragraph 1). […]

Chain of AGEs (bovine serum albumin (BSA) incubated with a reducing sugar) (P02769 25-607): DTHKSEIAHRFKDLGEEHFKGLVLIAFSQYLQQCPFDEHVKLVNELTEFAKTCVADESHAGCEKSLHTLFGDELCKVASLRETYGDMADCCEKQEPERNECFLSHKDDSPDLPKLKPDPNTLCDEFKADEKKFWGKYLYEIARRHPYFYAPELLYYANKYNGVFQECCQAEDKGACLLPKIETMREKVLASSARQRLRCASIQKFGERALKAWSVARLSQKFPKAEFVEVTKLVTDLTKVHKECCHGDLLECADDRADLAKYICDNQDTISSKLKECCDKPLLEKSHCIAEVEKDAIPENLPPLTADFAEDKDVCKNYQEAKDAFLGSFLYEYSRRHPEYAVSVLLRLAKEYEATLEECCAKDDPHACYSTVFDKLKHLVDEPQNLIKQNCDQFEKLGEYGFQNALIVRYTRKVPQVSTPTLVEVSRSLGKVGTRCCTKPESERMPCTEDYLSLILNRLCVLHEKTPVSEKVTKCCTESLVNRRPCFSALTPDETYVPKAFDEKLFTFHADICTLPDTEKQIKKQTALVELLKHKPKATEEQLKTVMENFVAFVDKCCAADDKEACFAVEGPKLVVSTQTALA

Row | SMILES | % deglycation [%]
1 | Oc1cc(O)c2c(c1)O[C@@H](c1ccc(O)c(O)c1)[C@H](O)C2 (relative stereo) [trans-3,3′,4′,5,7-Pentahydroxyflavane] | 100
2 | Oc1cc(O)cc(O)c1 [1,3,5-Trihydroxybenzene (phloroglucinol), 1,3,5-Trihydroxybenzene] | 100
3 | O=c1cc(CO)occ1O [2-Hydroxymethyl-5-hydroxy-γ-pyrone] | 97
4 | O=C(O)C=Cc1ccc(O)c(O)c1 [3,4-Dihydroxycinnamic acid] | 88
5 | O=C(O)Cc1ccc(O)c(O)c1 [3,4-Dihydroxyphenylacetic acid (DOPAC), 3,4-Dihydroxyphenylacetic acid] | 100
6 | COc1cc(C=CC(=O)O)cc(OC)c1O [3,5-Dimethoxy-4-hydroxycinnamic acid] | 100
7 | Nc1ccc(O)cc1 [4-Aminophenol] | 100
8 | Cc1c(C)c2c(c(C)c1O)CCC(C)(C(=O)O)O2 (centres unmarked) [6-Hydroxy-2,5,7,8-tetramethylchromane-2-carboxylic acid] | 100
9 | Cc1cn2c(=O)c3ccccc3nc2n2c(=O)c3ccccc3nc12 [6-Methyl-5,7a,13,13b-tetraazapentaphene-8,14-dione] | 100
10 | Cc1cc(C)c2c(c1O)C(=O)OC2 [7-Hydroxy-4,6-dimethyl phthalide] | 100
11 | Oc1ccc2cc[nH]c2c1 [Indole alcohol amine II, 6-Hydroxyindole] | 100
12 | CC(Cc1ccc(O)c(O)c1)C(C)Cc1ccc(O)c(O)c1 (centres unmarked) [Nordihydroguaiaretic acid] | 100
13 | O=C1Cc2ccccc2N1 [Oxindole] | 100
14 | CNC(=O)Oc1ccc2c(c1)[C@]1(C)CCN(C)[C@@H]1N2C [Physostigmine] | 87
